Measurements: ChEMBL document CHEMBL1201862, “PubChem BioAssay data set” (2004)
Calls of active or inactive are those of the source.

Experiments:
[1] = biological target: Nonstructural protein 1 (Influenza A virus, UniProt Q194T2); type: functional, Influenza A virus (A/California/07/2009(H1N1))
[2] = biological target: T1, Hexokinase (Trypanosoma brucei, UniProt Q38C41); assay: Confirmation assay for inhibitors of Trypanosoma brucei hexokinase 1-Analogue-first series. [Related pubchem assays (depositor defined):AID1430, AID1632, AID2516, AID2560, AID2579, AID2600, AID449725, AID492951]; type: functional
T1 sequence (Q38C41 whole entry): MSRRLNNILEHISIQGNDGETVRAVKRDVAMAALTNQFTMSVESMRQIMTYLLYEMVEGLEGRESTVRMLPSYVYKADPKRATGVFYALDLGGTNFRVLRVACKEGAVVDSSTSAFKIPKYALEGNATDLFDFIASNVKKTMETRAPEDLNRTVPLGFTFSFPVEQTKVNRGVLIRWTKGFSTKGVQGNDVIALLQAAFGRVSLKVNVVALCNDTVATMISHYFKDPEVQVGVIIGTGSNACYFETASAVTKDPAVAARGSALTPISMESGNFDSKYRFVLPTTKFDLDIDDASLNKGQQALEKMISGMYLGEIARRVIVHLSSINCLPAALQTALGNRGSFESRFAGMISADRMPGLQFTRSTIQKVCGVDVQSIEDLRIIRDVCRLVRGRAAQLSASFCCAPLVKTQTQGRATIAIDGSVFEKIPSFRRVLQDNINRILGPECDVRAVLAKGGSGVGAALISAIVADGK

[3] = A cytotoxicity screen of small molecule inhibitors of the PhoP region in Salmonella typhi identified in the primary screen. [Related pubchem assays: 1850, 1864, 1985 ]; type: functional
[4] = biological target: Cytochrome P450 2C19 (Homo sapiens, UniProt P33261); assay: Cytochrome panel assay with activity outcomes. Panel member name: p450-cyp2c19 Compounds with AC50 equal or less than 10 uM are considered active; type: functional; details: read-out: AC50
Chain of Cytochrome P450 2C19 (P33261 whole entry): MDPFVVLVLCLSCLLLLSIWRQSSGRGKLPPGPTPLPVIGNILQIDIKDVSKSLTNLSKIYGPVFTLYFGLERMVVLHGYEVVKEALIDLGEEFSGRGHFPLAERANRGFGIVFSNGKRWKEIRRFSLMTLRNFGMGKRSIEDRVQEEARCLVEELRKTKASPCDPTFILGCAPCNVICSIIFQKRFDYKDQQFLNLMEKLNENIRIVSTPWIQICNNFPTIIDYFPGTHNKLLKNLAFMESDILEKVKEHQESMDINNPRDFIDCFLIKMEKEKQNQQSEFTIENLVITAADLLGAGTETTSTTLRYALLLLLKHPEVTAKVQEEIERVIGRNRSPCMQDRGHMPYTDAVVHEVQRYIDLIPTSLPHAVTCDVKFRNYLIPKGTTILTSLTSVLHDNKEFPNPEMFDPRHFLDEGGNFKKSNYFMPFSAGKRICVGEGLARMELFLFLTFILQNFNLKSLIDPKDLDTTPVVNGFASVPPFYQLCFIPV

[5] = biological target: T2, Protein Tat (Human immunodeficiency virus type 1 group M subtype B (isolate HXB2)(HIV-1), UniProt P04608); type: functional;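 further: tat binding to TAR RNA read out by fluorescence polarization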
T2 sequence (P04608 whole entry): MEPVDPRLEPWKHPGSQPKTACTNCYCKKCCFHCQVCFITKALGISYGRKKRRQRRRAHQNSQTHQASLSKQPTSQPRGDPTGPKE

[6] = biological target: T3, Short transient receptor potential channel 4 (Mus musculus, UniProt Q9QUQ5); assay: mouse TRPC4 channel activators, dose response, cell-based, HEK293 TRPC4/mu-opioid, Fluo-4 calcium (AID 434937); type: functional
T3 sequence (Q9QUQ5 whole entry): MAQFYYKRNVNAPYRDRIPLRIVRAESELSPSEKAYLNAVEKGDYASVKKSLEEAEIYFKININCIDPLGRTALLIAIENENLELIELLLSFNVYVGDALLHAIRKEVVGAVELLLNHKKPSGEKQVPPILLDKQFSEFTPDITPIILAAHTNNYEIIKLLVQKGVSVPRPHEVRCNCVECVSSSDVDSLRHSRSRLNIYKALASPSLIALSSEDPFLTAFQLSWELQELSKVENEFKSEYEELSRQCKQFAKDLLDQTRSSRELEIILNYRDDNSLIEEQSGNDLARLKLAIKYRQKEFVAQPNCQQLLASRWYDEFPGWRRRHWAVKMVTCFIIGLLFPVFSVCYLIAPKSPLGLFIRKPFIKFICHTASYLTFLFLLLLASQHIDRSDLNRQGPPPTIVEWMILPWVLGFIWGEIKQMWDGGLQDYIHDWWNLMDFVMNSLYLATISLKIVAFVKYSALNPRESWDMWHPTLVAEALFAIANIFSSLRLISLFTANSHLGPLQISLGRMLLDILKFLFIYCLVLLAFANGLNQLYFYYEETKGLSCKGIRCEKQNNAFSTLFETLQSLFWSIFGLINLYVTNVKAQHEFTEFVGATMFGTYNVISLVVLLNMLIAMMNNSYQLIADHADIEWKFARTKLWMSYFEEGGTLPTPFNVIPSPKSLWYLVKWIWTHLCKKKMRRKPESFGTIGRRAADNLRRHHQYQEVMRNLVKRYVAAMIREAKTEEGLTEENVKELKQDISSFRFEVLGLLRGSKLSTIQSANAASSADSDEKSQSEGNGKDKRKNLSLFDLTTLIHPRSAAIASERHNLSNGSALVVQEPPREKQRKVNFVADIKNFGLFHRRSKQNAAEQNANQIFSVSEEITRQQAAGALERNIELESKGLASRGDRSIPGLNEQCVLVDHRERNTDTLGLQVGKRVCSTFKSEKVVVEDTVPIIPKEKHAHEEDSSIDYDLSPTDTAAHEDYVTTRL

[7] = cytotoxicity in OVCAR8 ovarian cancer cells, dose response, PAX8 project, cell-based, plate reader, dry powder samples (AID 743197); type: functional; details: OVCAR-8
[8] = biological target: Paired box protein Pax-8 (Homo sapiens, UniProt Q06710); assay: inhibitors of PAX8-driven TPO luciferase reporter, dose response, RMG-I cells, cherry-pick (AID 687027); type: functional, cell-based;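 further: luciferase reporter driven by Pax8 target thyroperoxidase promoter measured by SteadyGlo luminescence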
Chain of Paired box protein Pax-8 (Q06710 whole entry): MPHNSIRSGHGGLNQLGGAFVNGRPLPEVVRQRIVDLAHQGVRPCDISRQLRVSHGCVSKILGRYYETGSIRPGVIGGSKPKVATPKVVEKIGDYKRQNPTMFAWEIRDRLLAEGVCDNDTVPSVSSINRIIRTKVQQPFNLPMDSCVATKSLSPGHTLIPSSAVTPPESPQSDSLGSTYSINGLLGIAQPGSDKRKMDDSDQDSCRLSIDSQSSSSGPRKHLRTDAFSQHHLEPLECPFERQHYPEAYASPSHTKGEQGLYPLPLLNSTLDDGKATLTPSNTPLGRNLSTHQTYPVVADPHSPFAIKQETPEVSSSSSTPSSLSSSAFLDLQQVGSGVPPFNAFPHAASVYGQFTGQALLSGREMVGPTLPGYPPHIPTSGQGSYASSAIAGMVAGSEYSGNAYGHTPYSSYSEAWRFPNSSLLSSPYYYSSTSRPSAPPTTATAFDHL

[9] = biological target: Estrogen receptor beta (Homo sapiens, UniProt Q92731);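 further: recombinant ER-beta bound to coactivator SRC1 peptide in presence of estradiol agonist; inhibitors block coactivator peptide binding and lower the FRET signal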
Chain of Estrogen receptor beta (Q92731 whole entry, the tested form may be a part): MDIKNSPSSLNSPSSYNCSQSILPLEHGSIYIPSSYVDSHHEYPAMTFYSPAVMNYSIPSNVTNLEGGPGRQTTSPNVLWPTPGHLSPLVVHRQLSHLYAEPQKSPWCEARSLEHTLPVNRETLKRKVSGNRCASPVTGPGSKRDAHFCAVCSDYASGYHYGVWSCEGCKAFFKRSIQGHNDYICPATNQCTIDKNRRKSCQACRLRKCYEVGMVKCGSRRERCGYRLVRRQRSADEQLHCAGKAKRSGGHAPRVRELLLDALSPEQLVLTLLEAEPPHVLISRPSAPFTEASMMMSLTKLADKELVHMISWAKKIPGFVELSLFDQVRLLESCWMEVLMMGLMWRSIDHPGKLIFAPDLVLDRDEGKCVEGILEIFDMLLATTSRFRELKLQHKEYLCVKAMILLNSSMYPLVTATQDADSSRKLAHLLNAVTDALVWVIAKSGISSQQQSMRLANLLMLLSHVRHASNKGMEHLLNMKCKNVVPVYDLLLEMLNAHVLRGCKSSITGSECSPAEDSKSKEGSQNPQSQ

[10] = biological target: T4, RNA-binding protein pos-1 (Caenorhabditis elegans, UniProt G5EF15); assay: inhibitors of POS-1/mex-3 RNA binding, dose response, biochemical, fluorescence polarization (AID 1964);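 further: purified POS-1 fused to maltose binding protein made in E. coli; potency of compounds blocking POS-1 binding to fluorescent RNA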
T4 sequence (G5EF15 whole entry): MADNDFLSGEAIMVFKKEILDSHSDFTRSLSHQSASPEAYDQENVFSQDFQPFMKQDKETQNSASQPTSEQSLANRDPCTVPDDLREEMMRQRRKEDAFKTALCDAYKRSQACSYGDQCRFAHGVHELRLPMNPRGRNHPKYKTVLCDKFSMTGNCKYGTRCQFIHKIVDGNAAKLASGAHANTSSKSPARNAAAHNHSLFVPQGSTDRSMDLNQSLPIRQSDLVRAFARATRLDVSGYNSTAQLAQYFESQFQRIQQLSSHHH

[11] = cells; type: functional, cell-based
[12] = biological target: T5, Carboxy-terminal domain RNA polymerase II polypeptide A small phosphatase 1 (Homo sapiens, UniProt Q9GZU7); assay: inhibitors of CTDSP1, concentration-response testing, biochemical assay, absorbance-based, actives from ultra-high-throughput screening (AID 540297); type: functional
T5 sequence (Q9GZU7 whole entry): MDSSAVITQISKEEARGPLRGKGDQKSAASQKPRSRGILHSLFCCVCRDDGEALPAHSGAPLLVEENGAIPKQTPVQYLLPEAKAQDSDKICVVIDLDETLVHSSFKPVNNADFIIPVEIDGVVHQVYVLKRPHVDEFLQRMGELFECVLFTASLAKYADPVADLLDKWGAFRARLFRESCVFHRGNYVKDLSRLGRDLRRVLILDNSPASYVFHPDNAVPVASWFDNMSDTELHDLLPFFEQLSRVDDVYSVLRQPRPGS

[13] = cells; type: functional, cell-based; remark: listed apart in the source
[14] = biological target: T6, Zinc finger protein mex-5 (Caenorhabditis elegans, UniProt Q9XUB2); assay: MEX-5/TCR-2 RNA interaction inhibitors, dose response, biochemical, C. elegans, fluorescence polarization (AID 1960)
T6 sequence (Q9XUB2 whole entry): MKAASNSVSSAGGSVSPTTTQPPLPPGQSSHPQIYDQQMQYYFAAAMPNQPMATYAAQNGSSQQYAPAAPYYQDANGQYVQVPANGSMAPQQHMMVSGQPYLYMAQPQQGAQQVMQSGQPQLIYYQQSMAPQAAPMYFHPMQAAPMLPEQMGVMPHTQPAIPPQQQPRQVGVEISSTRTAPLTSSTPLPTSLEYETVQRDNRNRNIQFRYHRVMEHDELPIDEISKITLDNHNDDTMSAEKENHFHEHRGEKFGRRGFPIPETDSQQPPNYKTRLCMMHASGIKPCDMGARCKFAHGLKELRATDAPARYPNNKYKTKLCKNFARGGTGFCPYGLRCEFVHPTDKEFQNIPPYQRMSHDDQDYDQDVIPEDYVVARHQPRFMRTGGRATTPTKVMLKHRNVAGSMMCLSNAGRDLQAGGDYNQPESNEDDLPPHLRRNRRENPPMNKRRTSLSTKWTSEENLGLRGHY

[15] = biological target: T7, Histone-lysine N-methyltransferase NSD2 (Homo sapiens, UniProt O96028); type: biochemical
T7 sequence (O96028 whole entry): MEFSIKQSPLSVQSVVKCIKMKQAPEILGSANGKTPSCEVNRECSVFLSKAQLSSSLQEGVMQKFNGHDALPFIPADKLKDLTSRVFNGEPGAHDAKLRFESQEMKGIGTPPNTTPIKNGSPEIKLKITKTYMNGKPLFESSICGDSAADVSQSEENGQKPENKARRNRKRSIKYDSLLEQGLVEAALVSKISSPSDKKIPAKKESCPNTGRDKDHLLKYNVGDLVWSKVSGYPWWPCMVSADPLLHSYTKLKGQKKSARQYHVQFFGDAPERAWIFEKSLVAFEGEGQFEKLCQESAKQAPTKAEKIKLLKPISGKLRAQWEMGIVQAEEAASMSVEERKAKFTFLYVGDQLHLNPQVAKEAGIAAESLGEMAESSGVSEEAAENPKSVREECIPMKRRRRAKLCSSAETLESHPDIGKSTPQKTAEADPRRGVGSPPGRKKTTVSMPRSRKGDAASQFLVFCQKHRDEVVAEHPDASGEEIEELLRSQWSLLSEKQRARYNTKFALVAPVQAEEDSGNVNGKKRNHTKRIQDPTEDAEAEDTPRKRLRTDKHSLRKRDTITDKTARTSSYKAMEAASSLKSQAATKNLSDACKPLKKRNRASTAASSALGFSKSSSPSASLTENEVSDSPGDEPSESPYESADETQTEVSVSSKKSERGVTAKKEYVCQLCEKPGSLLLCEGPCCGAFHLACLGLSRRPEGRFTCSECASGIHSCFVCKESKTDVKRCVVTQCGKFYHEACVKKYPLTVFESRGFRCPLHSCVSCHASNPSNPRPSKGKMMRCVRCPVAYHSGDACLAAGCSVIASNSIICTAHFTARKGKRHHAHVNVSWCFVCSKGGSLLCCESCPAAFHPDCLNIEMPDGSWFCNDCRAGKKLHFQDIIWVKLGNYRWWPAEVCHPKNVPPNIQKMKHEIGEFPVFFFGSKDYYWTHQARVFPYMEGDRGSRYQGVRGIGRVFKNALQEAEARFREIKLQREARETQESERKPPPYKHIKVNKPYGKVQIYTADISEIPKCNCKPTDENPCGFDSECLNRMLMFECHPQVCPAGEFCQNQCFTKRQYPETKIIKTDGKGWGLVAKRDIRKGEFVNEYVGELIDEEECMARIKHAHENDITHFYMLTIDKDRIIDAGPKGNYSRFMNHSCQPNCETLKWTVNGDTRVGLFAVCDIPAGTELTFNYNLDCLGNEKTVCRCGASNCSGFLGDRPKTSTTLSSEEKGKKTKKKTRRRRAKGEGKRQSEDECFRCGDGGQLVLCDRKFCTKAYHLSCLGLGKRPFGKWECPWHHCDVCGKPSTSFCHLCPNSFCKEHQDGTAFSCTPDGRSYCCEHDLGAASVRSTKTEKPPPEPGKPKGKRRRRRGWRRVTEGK

Chain of Nonstructural protein 1 (Q194T2 whole entry): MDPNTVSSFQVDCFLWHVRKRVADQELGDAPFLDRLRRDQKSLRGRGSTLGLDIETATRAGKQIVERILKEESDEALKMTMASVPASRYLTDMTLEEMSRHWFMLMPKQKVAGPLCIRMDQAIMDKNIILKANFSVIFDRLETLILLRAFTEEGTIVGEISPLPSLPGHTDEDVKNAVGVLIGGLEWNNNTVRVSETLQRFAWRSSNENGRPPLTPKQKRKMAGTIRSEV

## CN1CC(C(=O)c2ccc(Cl)cc2)C(c2ccc(N(C)C)cc2)C1 (stereo not given)
[1]
  IC50: 43.8 µM (active)

## Cn1sc(=O)c2ccccc21
[2]
  IC50: > 25 µM (inactive)

## C=C(C)c1ccc(C(=O)Nc2cc(Cl)ccc2C(=O)O)cc1
[2]
  IC50: 7.16 µM (active)

## CCN1C(c2ccccc2)=C(c2ccccc2)S/C1=C/C=C1\SC(=S)N(C)C1=O
[1]
  IC50: 7.78 µM (active)

## O=C(N/N=C/c1ccccn1)c1ccc(Br)o1
[3]
  EC50: > 50 µM (active)
[4]
  AC50: 35.5 µM (inconclusive)

## O=C1[C@@H]2C(Cc3ccc(O)cc3)NC3(C(=O)Nc4ccc(F)cc43)[C@@H]2C(=O)N1c1ccc(F)cc1 (stereo not given in full)
[5]
  IC50: > 100 µM (active)

## CCN(CC)c1ccc(/C=C/[N+](=O)[O-])cc1
[6]
  EC50: 2.99 µM (active)

## CCc1ccc2nc(N3CCN(C)CC3)c(C#N)cc2c1
[5]
  IC50: > 100 µM (active)

## C[C@H]1CCCCO[C@H](CN(C)C(=O)Nc2ccc(C(F)(F)F)cc2)[C@@H](C)CN([C@@H](C)CO)C(=O)c2cc(NS(=O)(=O)c3ccc(F)cc3)ccc2O1
[7]
  AC50: > 70 µM (inactive)
[8]
  AC50: 4.63 µM (active)

## N=c1c(C(=O)NCC2CCCO2)cc2c(=O)n3ccccc3nc2n1Cc1ccc(Cl)cc1 (stereo not given)
[3]
  EC50: > 50 µM (active)

## COC(=O)c1ccc(N2CCN(C)CC2)c(NC(=O)c2ccc(Br)o2)c1
[6]
  EC50: 5.96 µM (active)

## COC(=O)c1ccc(Cl)cc1NC(=O)c1ccc(OC)cc1
[2]
  IC50: > 25 µM (inactive)

## C[C@@H]1CN([C@@H](C)CO)C(=O)Cc2cc(NC(=O)Nc3ccc(C(F)(F)F)cc3)ccc2O[C@H]1CN(C)C(=O)Nc1ccc(C(F)(F)F)cc1
[7]
  AC50: > 70 µM (inactive)
[8]
  AC50: 8.87 µM (active)

## CC(C(=O)NC1CCS(=O)(=O)C1)N1C(=O)/C(=C/c2ccc(Cl)cc2)SC1=S (stereo not given)
[3]
  EC50: > 50 µM (active)

## COc1ccc(-c2nnc(SC(C)C(=O)Nc3nccs3)n2Cc2ccccc2)cc1OC (stereo not given)
[3]
  EC50: > 50 µM (active)

## Cc1nccn1-c1ncnc2sc3c(c12)CCCC3
[9]
  IC50: > 50 µM (not active)

## COc1ccc(CC(=O)NCC(c2ccc(OC)cc2)N(C)C)cc1 (stereo not given)
[6]
  EC50: 0.668 µM (active)

## [O-][n+]1c2ccccc2cc2ccccc21
[3]
  EC50: > 50 µM (active)

## Brc1ccc2nc(-c3c[nH]c4ccccc34)cn2c1
[3]
  EC50: > 50 µM (active)

## O=C(Nc1ccc(O)cc1C(=O)O)c1ccc2c(c1)C(=O)N(Cc1ccco1)C2=O
[9]
  IC50: 13.8 µM (active)

## Cc1ccc(C(=O)Nc2cc(Cl)ccc2C(=O)O)cc1
[2]
  IC50: 13.8 µM (active)

## O=C(O)c1cccc(-n2cccc2/C=C2/SC(=O)N(CC(=O)N3CCCC3)C2=O)c1
[10]
  EC50: > 300 µM (not active)
[11]
  EC50: > 350 µM (not active)
[12]
  IC50: 5.53 µM (active)
[13]
  EC50: > 350 µM (not active)
[14]
  EC50: > 300 µM (not active)
[15]
  AC50: > 20 µM (inactive)
